3 molecules from article PMC11230868, “eIF2β zinc-binding domain interacts with the eIF2γ subunit through the guanine nucleotide binding interface to promote Met-tRNAi^Met binding” (Bioscience Reports, 2024) can be followed below.

Test [1] concerns the target T1, eIF2 complex (eIF2αβγ) (Saccharomyces cerevisiae, UniProt P32481).
T1 construct: gene GCD11; full-length heterotrimer, 8xHis tag on N-terminus of eIF2γ (GCD11), overexpressed from pRS425_GCD11, SUI3, SUI2 in yeast YP920 (sui2Δ sui3Δ gcd11Δ); Ni-NTA, heparin and cation exchange; with Eukaryotic translation initiation factor 2 subunit alpha
Put plainly: fluorescence anisotropy titration of protein. The class given is binding. Particulars: labelled compound at 100 nM; pH 7.5, 110 mM K acetate, 2.5 mM Mg acetate, 26 °C; Hill fit n = 1. In general terms: Polarisation of emitted light reports the rotation of a fluorescent probe.

Test [2] has as its target T2, 3xHA-tagged eIF2β T238A mutant (yeast, UniProt P09064 1-285, T238A).
T2 construct: eIF2β, yeast SUI3 ORF + terminator with T238A, cloned behind SUI3 promoter + 3xHA; also called 3xHA-SUI3-T238A; source: yeast, single-copy plasmid, in whole-cell extract; not shown: 3xHA, N-terminal, kept
T2 sequence (looked up): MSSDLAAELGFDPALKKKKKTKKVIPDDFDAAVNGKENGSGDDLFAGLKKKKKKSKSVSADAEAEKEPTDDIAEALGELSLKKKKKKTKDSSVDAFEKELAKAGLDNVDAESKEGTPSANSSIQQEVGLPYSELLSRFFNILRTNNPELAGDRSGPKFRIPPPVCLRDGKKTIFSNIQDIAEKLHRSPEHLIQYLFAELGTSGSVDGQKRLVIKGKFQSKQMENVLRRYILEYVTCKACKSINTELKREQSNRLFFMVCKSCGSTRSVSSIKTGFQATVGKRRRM
Put plainly: co-IP; Co-IP of the 3xHA-tagged eIF2β subunit from yeast extract (Supplementary Figure S1). Particulars: partners not purified.

The target of test [3] is T3, N-terminal 3xHA-tagged eIF2γ (wild type) (yeast, UniProt P32481 1-527).
T3 construct: eIF2γ, yeast GCD11; GCD11 ORF + terminator cloned behind GCD11 promoter + 3xHA; also called 3xHA eIF2γ; eIF2γ^WT; source: yeast strain YP912 (gcd11Δ, sui3Δ), single-copy plasmid, in whole-cell extract; not shown: 3xHA, N-terminal, kept
Put plainly: co-IP; 3xHA-eIF2γ precipitated with anti-HA agarose beads from 300 μg yeast WCE (YP912), 4°C, 1 h; 20 mM HEPES pH 7.5, 100 mM KCl, 5 mM MgCl2, 5 mM NaF, 1 mM EDTA, 0.2% NP-40, 1% BSA; Western blot, bands normalised to the anti-HA band. The note with it: partners not purified. Background: Immunoblotting shows a protein as a band on a membrane.

T1 sequence (P32481 whole entry, one chain of several): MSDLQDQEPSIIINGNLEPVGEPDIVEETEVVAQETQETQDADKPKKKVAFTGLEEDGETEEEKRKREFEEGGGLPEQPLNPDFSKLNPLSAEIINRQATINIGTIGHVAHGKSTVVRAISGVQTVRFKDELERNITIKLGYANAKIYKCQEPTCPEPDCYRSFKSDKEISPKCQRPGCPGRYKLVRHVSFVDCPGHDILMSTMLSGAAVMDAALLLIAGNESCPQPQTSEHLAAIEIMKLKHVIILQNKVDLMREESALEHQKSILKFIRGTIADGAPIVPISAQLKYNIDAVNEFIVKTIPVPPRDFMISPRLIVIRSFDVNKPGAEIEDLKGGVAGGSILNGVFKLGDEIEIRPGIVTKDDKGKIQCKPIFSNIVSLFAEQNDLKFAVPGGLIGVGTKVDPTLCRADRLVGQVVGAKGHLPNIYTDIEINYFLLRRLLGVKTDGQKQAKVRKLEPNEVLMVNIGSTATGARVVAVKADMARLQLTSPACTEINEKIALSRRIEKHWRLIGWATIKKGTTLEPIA
T1 sequence (P09064 whole entry partner, one chain of several): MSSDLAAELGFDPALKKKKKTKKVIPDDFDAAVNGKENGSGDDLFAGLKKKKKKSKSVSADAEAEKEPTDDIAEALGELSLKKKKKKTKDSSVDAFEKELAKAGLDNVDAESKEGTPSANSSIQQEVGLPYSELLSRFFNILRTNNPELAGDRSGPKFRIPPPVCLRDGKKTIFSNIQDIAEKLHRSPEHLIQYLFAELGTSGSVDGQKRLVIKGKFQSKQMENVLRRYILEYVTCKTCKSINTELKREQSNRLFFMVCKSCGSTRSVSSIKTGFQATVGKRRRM
T3 sequence (P32481 whole entry): as the sequence (P32481 whole entry, one chain of several) above

As for GDP-BODIPY, the Kd in test [1] is 36.7 nM. In turn, GDPγS-BODIPY yielded a Kd in test [1] of 1400 nM.

B1: eIF2α subunit (natural protein, yeast, UniProt P20459 1-304, looked up)
chain: MSTSHCRFYENKYPEIDDIVMVNVQQIAEMGAYVKLLEYDNIEGMILLSELSRRRIRSIQKLIRVGKNDVAVVLRVDKEKGYIDLSKRRVSSEDIIKCEEKYQKSKTVHSILRYCAEKFQIPLEELYKTIAWPLSRKFGHAYEAFKLSIIDETVWEGIEPPSKDVLDELKNYISKRLTPQAVKIRADVEVSCFSYEGIDAIKDALKSAEDMSTEQMQVKVKLVAAPLYVLTTQALDKQKGIEQLESAIEKITEVITKYGGVCNITMPPKAVTATEDAELQALLESKELDNRSDSEDDEDESDDE
notes: eIF2α, yeast SUI2; chromosomal gene in the co-IP strains, whole SUI2 gene on pRS425 for the purified complex; also called SUI2; source: endogenous, yeast whole-cell extract (YP912); yeast YP920, high-copy pRS425 plasmid, co-purified in the 8xHis-eIF2 complex
Turning to B1, the “fold change of binding against the 3xHA-eIF2β wild type” value in test [2] is 1.3 fold. Besides, the “fold change of binding in the eIF2β^T238A strain against the eIF2β^WT strain” value in test [3] was approximately 4.5 fold.

In general, Kd refers to a measure of binding affinity in units of concentration.
